Measured values as given in US7759291B2, “Pyrazole compounds and use thereof” (Sumitomo Chemical Company, Limited, priority 2004, dated 2010).

Key:
[1] = system: Tetranychus urticae; test: Test Example 1: spray test against Tetranychus urticae on brush bean, Controlling Rate; type: in vivo; conditions: 200 ppm, 30 ml sprayed over brush bean (Phaseolus vulgaris) with female adults
Description: The formulation obtained according to Formulation Example 1 using the present invention compounds (1) to (30) and the comparative compound (a) described below respectively, was diluted with water so that the concentration of the present invention compound or the comparative compound came to 200 ppm. About twenty female adults of Tetranychus urticae were set free on brush bean (Phaseolus vulgaris) in the primary leaf stage, which had been potted in a plastic cup for 7 days after the seeding. After 1 day, a 30 ml of the diluted formulation described-above was sprayed over the plant. On the 8th and 13th day after the application, the numbers of lived Tetranychus urticae on the leaf of brush bean plant were examined, and the Controlling Rates were calculated by the following scheme. Controlling Rate=100×{1−(a number of lived Tetranychus urticae in the treatment)/(a number of lived Tetranychus urticae in the non-treatment)}

[2] = system: Adoxophyes orana fasciata; test: Test Example 2: spray test on apple seedling against first-instar larvae of Adoxophyes orana fasciata, rate of dead pests; type: in vivo; conditions: 200 ppm, 30 ml sprayed over apple seedling, 7th day after application
Description: The formulation obtained according to Formulation Example 1 using the present invention compound (25): [drawing 138] and the comparative compound (b) described below respectively, was diluted with water so that the concentration of the present invention compound or the comparative compound came to 200 ppm. 30 ml of the diluted formulation described above was sprayed over the seedling of apple, which had been potted in plastic cup for 28 days after seeding about 15 cm height. After the sprayed solution was dried, about sixty first-instar larvae of Adoxophyes orana fasciata were set free on the apple seedling. On the 7 th day after application, the number of surviving or dyed Adoxophyes orana fasciata on the apple seedling was examined, and the rate of dead pests was calculated.

SMILES	Controlling Rate ([1]; 8th day after the application)	Controlling Rate ([1]; 13th day after the application)	rate of dead pests [2]
Cc1nn(C)c(Oc2ccc(Oc3ccc(C(F)(F)F)cc3)cc2)c1C=NOCc1ccccc1 [comparative compound (a)]	less than 30%	less than 30%	–
Cc1nn(C)c(Oc2ccc(Oc3ccc(C(F)(F)F)cc3)cc2)c1C=O [comparative compound (b)]	–	–	less than 80%
C=CCOc1ccc(Oc2ccc(Oc3c(C)c(C)nn3C)cc2)cc1 [present invention compound (25)]	–	–	≥ 90%
